What was measured:
[1] = test system: Z138 human B-Cell Non-Hodgkin-lymphoma (NHL) cells; assay: Tumor growth inhibition study in vivo, Z138 MCL xenografts in SCID beige mice; conditions: 10 mg/kg i.v. q7d
From the text: Z138 human B-Cell Non-Hodgkin-lymphoma (NHL) cells were originally obtained from Glycart (Mantle cell lymphoma-MCL). […] Passage 2 was used for transplantation.
Animal treatment started at day of randomisation, 14 days after s.c. cell transplantation.
Therefore s.c. xenografts models in SCID beige mice are not appropriate for mimicking human ADCC mediated effect with glycoengineered modified antibodies.

[2] = target: T1, CD20 on Raji cells (ATCC-No. CCL-86) (Homo sapiens, UniProt P11836); assay: Ratio of the binding capacities to CD20 on Raji cells compared to rituximab (direct immunofluorescence, Cy5, FACSArray); conditions: Cy5-conjugated antibodies, MFI at EC50, corrected for Cy5-labeling ratio
T1 construct: generated by direct immunofluorescence using the Burkitt's lymphoma cell line Raji (ATCC-No. CCL-86); host or cells: Raji cells
T1 sequence (P11836 1-297): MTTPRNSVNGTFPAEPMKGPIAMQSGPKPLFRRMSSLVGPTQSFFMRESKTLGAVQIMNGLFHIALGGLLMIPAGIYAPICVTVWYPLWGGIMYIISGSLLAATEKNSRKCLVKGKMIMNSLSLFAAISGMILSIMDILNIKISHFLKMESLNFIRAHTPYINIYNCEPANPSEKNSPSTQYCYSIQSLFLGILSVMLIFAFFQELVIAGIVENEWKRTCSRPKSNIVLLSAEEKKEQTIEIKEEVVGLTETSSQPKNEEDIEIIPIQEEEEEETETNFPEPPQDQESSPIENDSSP
Protocol: MFI is the mean fluorescent intensity. The “Cy5-labeling ratio” as used herein means the number of Cy5-label molecules per molecule antibody.
Raji cells (ATCC-No. CCL-86) were maintained in culture in RPMI-1640 medium (PanBiotech GmbH, Cat.-No. PO4-18500) containing 10% FCS (Gibco, Cat.-No. 10500-064). […] 5*10^5 cells per sample were stained for 30 min at 4° C. Afterwards, cells were washed in culture medium. Propidium iodide (PI) staining was used to exclude dead cells.
Then the ratio of the binding capacities to CD20 on Raji cells (ATCC-No. CCL-86) is calculated according to the following formula: […]

Row | Substance | Antitumor activity, later outcome [1] | Difference in antitumor activity between wt and glycoengineered versions [1] | Antitumor activity at time of control termination ([1]; 19 days after treatment initiation) | Ratio of the binding capacities to CD20 on Raji cells compared to rituximab [2]
1 | B-HH6-B-KV1 wt: Type II anti-CD20 antibody, humanized B-Ly1 B-HH6-B-KV1 wildtype (non-glycoengineered) | most of Z138 tumor xenografts showed complete remission | No significant differences | all antibody tumors regressed | 
2 | B-HH6-B-KV1: Type II anti-CD20 antibody (humanized B-Ly1 antibody) of Example 2; FIG. 2 legend calls it B-HH6-B-KV1 GE |  |  |  | reduces binding capacity compared to rituximab

— patent US20150056186A1, “COMBINATION THERAPY OF A TYPE II ANTI-CD20 ANTIBODY WITH AN ANTI-BCL-2 ACTIVE AGENT” (Hoffmann-La Roche Inc., priority 2007, published 2015)
